According to the NIST ThermoML archive (doi:10.1016/j.jct.2017.08.004):

Tests used:
[1] = Molar enthalpy of transition or fusion; conditions: Crystal; DSC
[2] = for molar entropy: 101.33 kPa

OC[C@@H](O)[C@H](O)[C@@H](O)CO [xylitol]
Conditions	Molar enthalpy of transition or fusion [kcal/mol]
[1]	9.44

[2]
Conditions	molar entropy [J/K/mol]
1 K, Crystal, relaxation calorimetry	0.0003173
2 K, Crystal, relaxation calorimetry	0.002178
3 K, Crystal, relaxation calorimetry	0.007217
4 K, Crystal, relaxation calorimetry	0.01724
5 K, Crystal, relaxation calorimetry	0.03429
6 K, Crystal, relaxation calorimetry	0.06064
7 K, Crystal, relaxation calorimetry	0.09884
8 K, Crystal, relaxation calorimetry	0.1517
9 K, Crystal, relaxation calorimetry	0.2221
10 K, Crystal, relaxation calorimetry	0.3121
15 K, Crystal, relaxation calorimetry	1.099
20 K, Crystal, relaxation calorimetry	2.464
25 K, Crystal, relaxation calorimetry	4.334
30 K, Crystal, relaxation calorimetry	6.612
35 K, Crystal, relaxation calorimetry	9.217
40 K, Crystal, relaxation calorimetry	12.09
45 K, Crystal, relaxation calorimetry	15.19
50 K, Crystal, relaxation calorimetry	18.47
55 K, Crystal, relaxation calorimetry	21.88
60 K, Crystal, relaxation calorimetry	25.4
65 K, Crystal, relaxation calorimetry	29.01
70 K, Crystal, relaxation calorimetry	32.7
75 K, Crystal, relaxation calorimetry	36.44
80 K, Crystal, relaxation calorimetry	40.21
85 K, Crystal, relaxation calorimetry	44.01
90 K, Crystal, relaxation calorimetry	47.82
95 K, Crystal, relaxation calorimetry	51.65
100 K, Crystal, relaxation calorimetry	55.48
110 K, Crystal, relaxation calorimetry	63.13
120 K, Crystal, relaxation calorimetry	70.74
130 K, Crystal, relaxation calorimetry	78.31
140 K, Crystal, relaxation calorimetry	85.82
150 K, Crystal, relaxation calorimetry	93.27
160 K, Crystal, relaxation calorimetry	100.65
170 K, Crystal, relaxation calorimetry	107.96
180 K, Crystal, relaxation calorimetry	115.21
190 K, Crystal, relaxation calorimetry	122.4
200 K, Crystal, relaxation calorimetry	129.55
210 K, Crystal, relaxation calorimetry	136.64
220 K, Crystal, relaxation calorimetry	143.7
230 K, Crystal, relaxation calorimetry	150.72
240 K, Crystal, relaxation calorimetry	157.72
250 K, Crystal, relaxation calorimetry	164.69
260 K, Crystal, relaxation calorimetry	171.65
270 K, Crystal, relaxation calorimetry	178.59
273.15 K, Crystal, relaxation calorimetry	180.78
280 K, Crystal, relaxation calorimetry	185.53
290 K, Crystal, relaxation calorimetry	192.47
298.15 K, Crystal, relaxation calorimetry	198.13
300 K, Crystal, relaxation calorimetry	199.41
305 K, Crystal, Small sample (50 mg) DSC	202.93
310 K, Crystal, Small sample (50 mg) DSC	206.47
315 K, Crystal, Small sample (50 mg) DSC	210.02
320 K, Crystal, Small sample (50 mg) DSC	213.58
325 K, Crystal, Small sample (50 mg) DSC	217.15
330 K, Crystal, Small sample (50 mg) DSC	220.72
335 K, Crystal, Small sample (50 mg) DSC	224.31
340 K, Crystal, Small sample (50 mg) DSC	227.9
345 K, Crystal, Small sample (50 mg) DSC	231.52
350 K, Crystal, Small sample (50 mg) DSC	235.17
355 K, Crystal, Small sample (50 mg) DSC	238.92
360 K, Crystal, Small sample (50 mg) DSC	243.05
380 K, Liquid, Small sample (50 mg) DSC	367.99
385 K, Liquid, Small sample (50 mg) DSC	373.77
390 K, Liquid, Small sample (50 mg) DSC	379.42
395 K, Liquid, Small sample (50 mg) DSC	385
400 K, Liquid, Small sample (50 mg) DSC	390.52
405 K, Liquid, Small sample (50 mg) DSC	395.99
410 K, Liquid, Small sample (50 mg) DSC	401.41
415 K, Liquid, Small sample (50 mg) DSC	406.78
420 K, Liquid, Small sample (50 mg) DSC	412.1
425 K, Liquid, Small sample (50 mg) DSC	417.37
430 K, Liquid, Small sample (50 mg) DSC	422.59
435 K, Liquid, Small sample (50 mg) DSC	427.75

Conditions	Normal melting temperature [°C]
[2], Crystal, DTA	93.0
